Read-outs that look alike come from different tables or passages of the source.
Columns and labels:
[1] = rat, at 14-day MTD […] mg/kg
OCI-Ly1 = system: OCI-Ly1
Description: (§1) FIG. 18: Propidium iodide FACS analysis of cell cycle in human lymphoma cell lines. […] Data represents the average±SEM of biological replicates, n=2.
(§2) By day 7, an increase in the sub-G1 population was apparent at concentrations ≥100 nM.

U2932 = system: U2932
Description: as §1, §2

[2] = dog, at 21-day MTD […] mg/kg
AML cell lines [3] = assay: 6-day growth-death assay (Cell Titer Glo); assay type: cell-based, human; conditions: 10 cell lines
Description: (§4) The growth of all cell lines was evaluated over time across a wide range of seeding densities to identify conditions that permitted proliferation throughout the entire 6-day assay. Cells were plated at the optimal seeding density and after overnight incubation, a 20-point 2-fold titration of compound was added and plates were incubated for 6 days. A replicate plate of cells was harvested at the time of compound addition to quantify the starting number of cells (T0). Values obtained after the 6 day treatment were expressed as a function of the T0 value and plotted against compound concentration. The T0 value was normalized to 100% and represents the number of cells at the time of compound addition. The data were fit with a 4 parameter equation to generate a concentration response curve and the growth IC50 (gIC50) was determined. The gIC50 is the midpoint of the ‘growth window’, the difference between the number of cells at the time of compound addition (T0) and the number of cells after 6 days (DMSO control). The growth-death assay can be used to quantify the net population change, clearly defining cell death (cytotoxicity) as fewer cells compared to the number at the time of compound addition (T0).

Toledo DLBCL cells = assay: western analysis of arginine methylation, timecourse; assay type: cell-based, human; conditions: 0.4 uM
Description: (B) Representative western blots of arginine methylation marks. Regions quantified are denoted by black bars on the right of the gel.
As predicted, ADMA methylation decreased while MMA increased upon compound exposure (FIG. 12). […] Given the detection of numerous substrates with varying kinetics, and variability of ADMA levels among DMSO-treated samples, both the full lane and a prominent 45 kDa band were characterized to assess ADMA. Increases in MMA were apparent by 24 hours and near maximal by 48 hours while decreases in the 45 kDa ADMA band required 72-96 hours to achieve maximal effect. Increases in SDMA were apparent after 48 hours of compound exposure and continued to increase through 120 hours, consistent with the potential switch from conversion of MMA to ADMA by Type I PRMTs to SDMA by Type II PRMTs (FIG. 12).

kidney cancer cell lines = assay: 6-day growth-death assay (Cell Titer Glo); assay type: cell-based, human; conditions: renal cell carcinoma lines tested
Description: as §4

AML cell lines [4] = assay: 6 and 10 day proliferation assays; assay type: cell-based, human; conditions: day 10 vs day 6
From the text: (§3) (B) Ymin-T0 at 6 day (light blue) and 10 day (dark blue) with corresponding gIC100 (red points).

lymphoma cell lines [5] = assay: 6 and 10 day proliferation assays; assay type: cell-based, human; conditions: day 10 vs day 6
From the text: as §3

lymphoma cell lines [6] = assay: 6-day growth-death assay (Cell Titer Glo); assay type: cell-based, human; conditions: Hodgkin's and non-Hodgkin's subtypes
Description: as §4

[7] = system: panel of lymphoma cell lines; assay: western dose response of arginine methylation; assay type: cell-based, human; conditions: all lymphoma cell lines evaluated; 72 hours
From the text: Regions quantified for (B) are denoted by black bars to the left of gels. […] Corresponding gIC50 values in 6-day growth death assay are as indicated in red.

AML cell lines [8] = assay: Methylscan proteomic evaluation of arginine methylation; assay type: cell-based; conditions: AML cell lines treated with the tool compound vs DMSO
From the text: FIG. 3: Methylscan evaluation of cell lines treated with Compound D. Percent of proteins with methylation changes (independent of directionality of change) are categorized by functional group as indicated.
To identify putative PRMT1 substrates, a proteomic approach (Methylscan, Cell Signaling Technology) was utilized to identify proteins with changes in arginine methylation states in response to a tool PRMT1 inhibitor, Compound D. Protein fragments from Compound D- and DSMO-treated cell extracts were immunoprecipitated using methyl arginine specific antibodies (ADMA, MMA, SDMA), and peptides were identified by mass spectrometry.

| Structure (SMILES) | Cave (total AUC or exposure) [1] [nM] | concentration at which sub-G1 effect was evident (OCI-Ly1) [µM] | concentration at which sub-G1 effect was evident (U2932) [µM] | Cave (total AUC or exposure) [2] [nM] | number of cell lines in which cytotoxicity was induced (AML cell lines [3]) [cell lines] | time to maximal decrease of the 45 kDa ADMA band (Toledo DLBCL cells) [h] | change of ADMA methylation (Toledo DLBCL cells; up to 120 hours) | change of MMA (Toledo DLBCL cells; up to 120 hours) | change of SDMA (Toledo DLBCL cells; up to 120 hours) | cytotoxic response (kidney cancer cell lines) | effect of extended exposure on potency (gIC50) or cytotoxicity (Ymin-T0) (AML cell lines [4]) | effect of extended exposure on potency (gIC50) or cytotoxicity (Ymin-T0) (lymphoma cell lines [5]) | sensitivity by lymphoma subtype (lymphoma cell lines [6]) | 45 kDa ADMA band [7] | proteins with changes in arginine methylation states (ADMA, MMA, SDMA) (AML cell lines [8]) |
| --- | --- | --- | --- | --- | --- | --- | --- | --- | --- | --- | --- | --- | --- | --- | --- |
| CCOCC1(COCC)CCC(c2n[nH]cc2CN(C)CCNC)CC1 [Compound A] | 2100 | 10 | 10 | 3200 | 5 | 72 to 96 | decreased | increased | increase | none of the lines tested showed a cytotoxic response | minimal effects | minimal effects | equally sensitive | decreased to undetectable levels | – |
| CNCCN(C)Cc1c[nH]nc1[C@H]1CC[C@@]2(CC1)CC(C)(C)CO2 [Compound D] | – | – | – | – | – | – | – | – | – | – | – | – | – | – | the majority of substrates identified were transcriptional regulators and RNA processing proteins |

Reference: US20210260033A1, “COMBINED THERAPY WITH ICOS BINDING PROTEINS AND […] INHIBITORS” (GLAXOSMITHKLINE INTELLECTUAL PROPERTY DEVELOPMENT LIMITED, priority 2018, published 2021)
